Assay results from ChEMBL document CHEMBL1129816, “Synthesis of 4-trifluoromethylsteroids: A novel class of steroid 5-reductase inhibitors” (Bioorg Med Chem Lett, 1997).

Columns and labels:
[1] = In vitro inhibitory activity against Steroid 5-alpha-reductase by using enzymic kinetics method
[2] = In vitro inhibitory activity against Steroid 5-alpha-reductase by using isotope method

SMILES | Ki [1] | Ki [2]
C[C@]12CCC(=O)C(C(F)(F)F)=C1CCC1C2CC[C@]2(C)C(=O)CCC12 (stereo partly drawn) | 28.8 nM | 95.2 nM
CC(C)(C)NC(=O)[C@H]1CCC2C3CCC4=C(C(F)(F)F)C(=O)CC[C@]4(C)C3CC[C@@]21C (stereo partly drawn) | 20.2 nM | 20.9 nM
CC(=O)[C@H]1CCC2C3CCC4=C(C(F)(F)F)C(=O)CC[C@]4(C)C3CC[C@@]21C (stereo partly drawn) | > 1000 nM | > 1000 nM
CC(C)(C)NC(=O)[C@H]1CC[C@H]2[C@@H]3CC[C@H]4NC(=O)C=C[C@]4(C)[C@H]3CC[C@]12C [FINASTERIDE] | 54.7 nM | 88.2 nM
